# Tests used:
# [1] = molecular target: T1, cell surface human leukocyte elastase (HLE-CS) (Homo sapiens, UniProt P08246); assay: Adherence of U937 cells to compound-coated glass (binding to HLE-CS); type: cell-based; settings: 2,000 U937 cells added per compound-treated well; for Adherent Cells: at optimal adherence concentration
# T1 construct: endogenous in cells
# T1 sequence (P08246 30-267): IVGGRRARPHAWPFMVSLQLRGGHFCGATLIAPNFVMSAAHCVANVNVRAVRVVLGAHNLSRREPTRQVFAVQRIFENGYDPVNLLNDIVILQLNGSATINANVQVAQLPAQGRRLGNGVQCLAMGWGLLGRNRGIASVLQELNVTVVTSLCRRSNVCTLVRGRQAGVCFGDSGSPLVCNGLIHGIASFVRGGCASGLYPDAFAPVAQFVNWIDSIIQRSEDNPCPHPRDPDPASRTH
# Source text: Adherence is the first step in cell migration and requires […] calcium, magnesium, signaling, or energy. […] […] After washing and fixing the cells, the number of adherent cells were counted microscopically.
# [2] = molecular target: T2, soluble, granule-associated human leukocyte elastase (HLE-G) (Homo sapiens, UniProt P08246); assay: Inhibition of soluble human leukocyte elastase (HLE-G), SA3NA substrate, 405 nm; type: biochemical; settings: for IC50: IC50 of compound versus HLE-G (75 μM); for Molar Excess**: Molar excess of compound to HLE-G at IC50
# T2 sequence (P08246 30-267): T1 sequence (P08246 30-267)
# Method: The procedures for measuring the capacity of substances to inhibit soluble forms of elastase or HLE-G are well known to those of ordinary skill in the art (U.S. Pat. No. 6,887,678; Bristow et al., 1998). Briefly, soluble human leukocyte elastase (HLE-G) is incubated for 2 minutes with a test substance, and to this mixture is added the elastase substrate succinic-L-Ala-L-Ala-L-Ala-p-nitroanilide (SA3NA, Sigma-Aldrich). Results are detected by measuring the color change at 405 nm.
# Assay 1: Inhibition of HLE (microplate assay, 10 tests per plate) as described in Example 2 above and previously published (Bristow et al., 1998).
# [3] = test system: E. coli DH5-Alpha; assay: Kirby-Bauer Disk Test, zones of inhibition; type: cell-based
# Method: […] At this concentration of cells, bacteria were spread on Mueller-Hinton agar plates. […] After incubation for 16 hours at 37° C., plates were examined for zones of inhibition.
# [4] = test system: LDL; assay: Diet-induced obesity (DIO) mouse model, serum LDL levels; type: in vivo; settings: 10 mg/kg oral gavage 5 days per week, week 6, normalized to vehicle
# Method: The well-known Jackson Laboratory (Bar Harbor, Me.) C57BL/6 Diet-Induced Obesity (DIO) mouse model represents human metabolic syndrome and elevated LDL levels. Mice are fed a high fat diet (60% fat) or normal diet (10% fat) for various periods of time and lipoprotein levels were measured. […] In accordance with a protocol used in a recently conducted human clinical trial (NCT01731691), mouse peripheral blood was collected into blood collection tubes, and serum was analyzed for lipoprotein levels using Beckman Coulter AU680 Chemistry System. In addition, cells were analyzed by flow cytometry to quantitate lymphocyte subsets including CD3, CD4, and CD8. As compared to baseline levels (before treatment), lipoprotein levels (including, but not limited to total cholesterol, HDL, LDL, apoA, apoB, apoC, apoE) and blood cells expressing the above mentioned cellular markers were quantitated to determine changes due to treatment. Diet-induced obesity mice (DIO, Jackson Laboratory) were fed a 60% fat diet for 17 weeks. […] Because mice were maintained on the DIO diet throughout the study, body weight and LDL levels increased in the vehicle control (Group 1). To compare the effectiveness of compounds, mean values within each treatment group were normalized by forming a ratio to mean values of vehicle, and the ratio was expressed as normalized % change using to the formula: 100−(Treatment mean/Vehicle mean*100).
# [5] = test system: HIV permissive (plus) clone 10; assay: Adherence assay on coverslips, U937 plus clone 10; type: cell-based, human
# Method: To coverslips prepared with chemoattractants as described above, 10^6 cells in 90 μl HBSS were mixed to uniformity, and incubated for 30 min in humidified 5% CO2 at 37° C. without dehydration. To detect interacting effects of stimulants, cells were delivered in an 80 μl volume to coverslips previously prepared with 10 μl of one stimulant, mixed to uniformity, and incubated for 15 min at 37° C. Subsequently, an additional stimulant was delivered in a 10 μl volume to each coverslip, mixed with pre-incubated cells to uniformity, and incubated for 30-60 min at 37° C. […] Slides were examined by epi-illumination UV microscopy on a Zeiss Axioskop Means and standard deviations were determined by counting adherent cells in at least three fields/coverslip.
# Means and standard deviations represent the difference between stimulated and unstimulated adherence. […] Adherence was optimized for each chemoattractant and adherence induced by each chemoattractant was enumerated in more than three separate experiments.
Molecule,Optimal Adherence Concentration (nM)*** [1] [nM],Adherent Cells [1],IC50 [2] [µM],Molar Excess** [2],other results
CC1(C)S[C@@H]2[C@H](NC(=O)[C@H](N)c3ccc(O)cc3)C(=O)N2[C@H]1C(=O)O [Amoxicillin],1,54 ± 20,–,–,–
C[C@H]1[C@H](NC(=O)/C(=N\OC(C)(C)C(=O)O)c2csc(N)n2)C(=O)N1S(=O)(=O)O [Aztreonam],1,33 ± 4,234,3.1,–
"CO/N=C(\C(=O)N[C@@H]1C(=O)N2C(C(=O)O)=C(COC(N)=O)CS[C@H]12)c1ccco1 [Cefuroxine, Cefuroxime]",1,34 ± 8,167,2.2,–
CC1=C(C(=O)O)N2C(=O)[C@@H](NC(=O)[C@H](N)c3ccccc3)[C@H]2SC1 [Cephalexin],10,27 ± 10,–,–,–
"CC1(C)S[C@@H]2[C@H](NC(=O)[C@H](N)c3ccccc3)C(=O)N2[C@H]1C(=O)O [D-Ampicillin, Ampicillin]",–,–,–,–,"activity in the Kirby-Bauer Disk Test ([3]; 0.5 mM): exhibits activity; zone of inhibition at 500 µM ([3]; Escherichia coli, DH5ALPHA, 0.5 mM, 10 μl per disk, 16 hours at 37° C., read-out: diameter of zone of inhibition): 15 mm; zone of inhibition at 5000 µM ([3]; Escherichia coli, DH5ALPHA, 5 mM, 10 μl per disk, 16 hours at 37° C., read-out: diameter of zone of inhibition): 30 mm"
Cc1onc(-c2c(Cl)cccc2Cl)c1C(=O)N[C@@H]1C(=O)N2[C@@H]1SC(C)(C)[C@@H]2C(=O)O [Dicloxacillin],1,26 ± 9,232,3.1,–
C[C@@H](O)[C@H]1C(=O)N2C(C(=O)O)=C(S[C@@H]3CN[C@H](CNS(N)(=O)=O)C3)[C@H](C)[C@H]12 [Doripenem],100,52 ± 6,178,2.4,–
O=C1[C@H](CC[C@H](O)c2ccc(F)cc2)[C@@H](c2ccc(O)cc2)N1c1ccc(F)cc1 [Ezetimibe],100,40 ± 3,277,3.7,normalized mean % change in LDL [4]: −43.8±29.6%
C[C@@H](O)[C@H]1C(=O)N2C(C(=O)O)=C([C@H]3CCCO3)S[C@H]12 [Faropenem],10,23 ± 4,203,2.7,–
"CC1(C)S[C@@H]2[C@H](NC(=O)COc3ccccc3)C(=O)N2[C@H]1C(=O)O [Pen V, Penicillin V]",10,30 ± 4,262,3.5,–
MAAPVCK [methoxysuccinyl-L-Ala-L-Ala-L-Pro-L-Val-chloromethylketone],–,–,–,–,stimulation of adherence [5]: stimulated to adhere
N-tosyl-L-phenylalanine chloromethylketone [TPCK],–,–,–,–,stimulation of adherence [5]: stimulated to adhere
Phe-Leu-Gly-Phe-Leu (FLGFL; printed: Phe-Leu-Gly-Phe-Leu) [synthetic peptide representative of the HIV fusion domain],–,–,–,–,stimulation of adherence [5]: stimulated to adhere

# — US12097190B2, “Therapeutic use of levorotatory β-lactams in hematopoiesis, immuno-oncology therapy, and regulation of lipoprotein and apolipoprotein levels” (Alpha-1 Biologics, LLC, priority 2017, dated 2024)
